Experimental data as given in patent US20140294970A1, “STABILIZED PHARMACEUTICAL SUB-MICRON SUSPENSIONS AND METHODS OF FORMING SAME” (Alcon Research, Ltd., priority 2008, published 2014).

Test system: FGFR
Experiment: Kinase inhibition, cell-free enzymatic assay
Assay type: biochemical
Conditions: 1 mM ATP
Description: All data reported as IC50 values for kinase inhibition in cell-free enzymatic assays. Values determined @ 1 mM ATP.

IC50: > 12.5 µM
SMILES: Cc1ccc(F)c(NC(=O)Nc2ccc(-c3cccc4[nH]nc(N)c34)cc2)c1 [RTK Inhibitor, N-[4-(3-amino-1H-indazol-4-yl)phenyl]-N′-(2-fluoro-5-methylphenyl) urea]
